Experimental data from US20090068103A1, “APTAMERS LABELED WITH 68GA” (priority 2006, published 2009).
Where two headings read alike, the source gives them in different places.

Columns and labels:
[1] = molecular target: T1, human tenascin-C (Homo sapiens, UniProt P24821); assay: Competition filter binding assay against 99mTc-TTA1-MAG2; details: 2 nM human TN-C, 1 nM 99mTc-TTA1-MAG2, competed with unlabeled aptamer, 37° C., 15 min
Protocol: A competition filter binding assay was carried out in order to determine binding constants (EC50). Samples of 2 nM human TN-C were incubated with 1 nM ^99mTc-TTA1-MAG2 in TBSMC buffer (20 mM Tris, pH 7.4; 137 mM NaCl; 1 mM CaCl2; 1 mM MgCl2) and the binding competed with varying concentrations of unlabeled aptamer (see pipetting scheme in FIG. 9.1). Incubation was carried out at 37° C. for 15 min. Subsequently, the solutions were pipetted on a Minifold Device equipped with a supported nitrocellulose membrane and Whatman filter paper and were washed with buffer using vacuum. Residual radioactivity on the filter due to tenascin-C bound labeled aptamer was quantified using a Phosphorimager. EC50 values were calculated using GraphPadPrism 3.02 (San Diego, Calif., USA) plotting one-side competition non-linear regression curves.

[2] = molecular target: T1, human tenascin-C; details: cited from earlier work

T1 sequence (P24821 23-2201): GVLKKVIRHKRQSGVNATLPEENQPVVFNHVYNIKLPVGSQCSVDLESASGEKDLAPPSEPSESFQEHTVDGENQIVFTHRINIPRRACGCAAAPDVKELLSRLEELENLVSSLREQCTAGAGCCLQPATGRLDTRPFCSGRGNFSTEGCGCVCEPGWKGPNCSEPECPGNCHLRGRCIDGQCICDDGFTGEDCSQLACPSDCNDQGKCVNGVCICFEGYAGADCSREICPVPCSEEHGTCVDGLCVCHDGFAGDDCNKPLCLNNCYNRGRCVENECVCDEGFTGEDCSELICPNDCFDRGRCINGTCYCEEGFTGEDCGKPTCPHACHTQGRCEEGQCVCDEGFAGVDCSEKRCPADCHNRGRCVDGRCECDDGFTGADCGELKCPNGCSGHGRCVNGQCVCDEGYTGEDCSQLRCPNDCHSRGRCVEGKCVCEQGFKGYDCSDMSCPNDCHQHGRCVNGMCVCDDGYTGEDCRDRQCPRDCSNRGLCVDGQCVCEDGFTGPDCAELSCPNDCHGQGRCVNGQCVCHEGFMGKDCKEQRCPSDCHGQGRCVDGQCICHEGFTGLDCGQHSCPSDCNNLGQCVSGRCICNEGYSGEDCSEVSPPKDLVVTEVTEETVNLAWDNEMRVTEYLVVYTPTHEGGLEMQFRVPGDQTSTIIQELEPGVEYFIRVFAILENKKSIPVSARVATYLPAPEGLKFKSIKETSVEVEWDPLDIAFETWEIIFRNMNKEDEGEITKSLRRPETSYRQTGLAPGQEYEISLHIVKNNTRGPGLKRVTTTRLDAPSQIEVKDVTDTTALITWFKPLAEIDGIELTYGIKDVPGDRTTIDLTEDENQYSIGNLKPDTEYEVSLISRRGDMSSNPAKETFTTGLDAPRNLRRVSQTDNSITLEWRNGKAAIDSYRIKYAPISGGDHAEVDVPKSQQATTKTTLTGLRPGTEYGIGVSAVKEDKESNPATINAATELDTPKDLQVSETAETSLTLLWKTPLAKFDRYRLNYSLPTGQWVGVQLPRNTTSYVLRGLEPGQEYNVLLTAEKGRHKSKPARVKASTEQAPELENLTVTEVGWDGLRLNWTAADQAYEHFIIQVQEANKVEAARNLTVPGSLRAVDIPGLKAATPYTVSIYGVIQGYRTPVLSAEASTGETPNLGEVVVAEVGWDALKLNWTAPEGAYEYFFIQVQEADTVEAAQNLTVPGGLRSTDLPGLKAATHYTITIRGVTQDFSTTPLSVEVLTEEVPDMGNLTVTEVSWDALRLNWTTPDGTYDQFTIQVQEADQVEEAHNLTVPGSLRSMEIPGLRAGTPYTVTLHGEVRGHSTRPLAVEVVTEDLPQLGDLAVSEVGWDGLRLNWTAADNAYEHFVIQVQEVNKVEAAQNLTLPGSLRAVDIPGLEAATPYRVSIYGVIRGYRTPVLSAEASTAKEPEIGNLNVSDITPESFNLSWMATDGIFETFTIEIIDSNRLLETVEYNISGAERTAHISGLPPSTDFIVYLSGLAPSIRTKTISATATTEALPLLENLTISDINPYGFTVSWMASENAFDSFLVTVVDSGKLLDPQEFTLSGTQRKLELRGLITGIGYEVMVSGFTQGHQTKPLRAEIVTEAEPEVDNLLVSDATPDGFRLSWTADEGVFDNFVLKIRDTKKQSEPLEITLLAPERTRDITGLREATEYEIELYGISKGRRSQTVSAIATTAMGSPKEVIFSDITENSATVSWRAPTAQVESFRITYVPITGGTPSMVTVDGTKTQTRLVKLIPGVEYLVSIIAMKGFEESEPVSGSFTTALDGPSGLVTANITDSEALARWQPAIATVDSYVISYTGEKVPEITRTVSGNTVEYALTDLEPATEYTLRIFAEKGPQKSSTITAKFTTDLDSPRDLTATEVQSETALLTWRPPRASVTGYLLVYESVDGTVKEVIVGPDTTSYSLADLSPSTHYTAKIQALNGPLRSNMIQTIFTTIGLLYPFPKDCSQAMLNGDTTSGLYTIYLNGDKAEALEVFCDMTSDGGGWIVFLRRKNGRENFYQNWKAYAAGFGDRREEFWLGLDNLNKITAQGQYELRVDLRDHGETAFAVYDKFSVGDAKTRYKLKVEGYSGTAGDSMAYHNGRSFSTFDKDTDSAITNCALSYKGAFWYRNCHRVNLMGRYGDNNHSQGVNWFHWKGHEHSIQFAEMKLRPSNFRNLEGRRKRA

Substance	EC50 [1]	Kd ([2]; final synthetic oligonucleotide, Hicke et al., read-out: KD)	Kd ([2]; human tenascin-C, read-out: binding affinity KD)
5′-mGmGmG mAmGG mAfCmG-(CH2CH2O)6-fCGfU fCGfC fCGfU mAmAfU mGmGmA fUmGfU fUfUfU mGfCfU fC(C6-NH2)CfC-3′-3′-T (CGUCGCCGUAAUGGAUGUUUUGCUC; 2'-OMe/2'-F, internal C6-amine, PEG spacer, 3' inverted dT, chemistry not fully specified) [TTA4]	20 nM		
5′-NH2-C6-O-PO2-O-GGG AGG ACG-(CH2CH2O)6-CGUCGCCGUAAUGGAUGUUUUGCUCCCUG-3′-3′-T (CGUCGCCGUAAUGGAUGUUUUGCUCCCUG; 5' aminohexyl, hexaethylene glycol spacer, 3'-3' inverted dT, chemistry not fully specified) [TTA1]	6 nM	5 nM	5 nM
5′-NH2-C6-O-PO2-O-mGmGmG mAmGG mAfCmG-(CH2CH2O)6-fCGfU fCGfC fCGfU mAmAfU mGmGmA fUmGfU fUfUfU mGfCfU fCfCfC UmG-3′-3′-T (CGUCGCCGUAAUGGAUGUUUUGCUCCCUG; 2'-OMe/2'-F, 5' aminohexyl, PEG spacer, 3' inverted dT, chemistry not fully specified) [TTA2]	31 nM		
5′-NH2-C6-O-PO2-O-mGmGmG mAmGG mAfCmG-(CH2CH2O)6-fCGfU fCGfC fCGfU mAmAfU mGmGmA fUmGfU fUfUfU mGfCfU fCfCfC UG-3′-3′-T (CGUCGCCGUAAUGGAUGUUUUGCUCCCUG; 2'-OMe/2'-F, 5' aminohexyl, PEG spacer, 3' inverted dT, chemistry not fully specified) [TTA3]	19 nM		
5′-NH2-C6-O-SPO-O-mGmGmG mAmGG mAfCmG-(CH2CH2O)6-fCGfU fCGfC fCGfU mAmAfU mGmGmA fUmGfU fUfUfU mGfCfU fCfCfC fUmG-3′-3′-T (CGUCGCCGUAAUGGAUGUUUUGCUCCCUG; 5' aminohexyl phosphorothioate, 2'-OMe/2'-F, PEG spacer, inverted dT, chemistry not fully specified) [TTA6]	14 nM		
5′-LGLGLG LALGmG mAfCrG-(CH2OCH2)6-fCGfU fCGfC fCGfU mAmAfU mGmGmA fUmGfU fUfUfU mGLCLU LCLCLC-(CH2)6NH2-3′ (CGUCGCCGUAAUGGAUGUUUUG; LNA/2'-OMe/2'-F, PEG spacer, 3' aminohexyl, chemistry not fully specified) [TTA7]	2 nM		
5′-mGmGmG mAmGmG mAfCrG-(CH2OCH2)6-fCGfU fCGfC fCGfU mAmAfU mGmGmA fUmGfU fUfUfU mGmCmU mCmCmC-(CH2)6NH2-3′ (CGUCGCCGUAAUGGAUGUUUUGCUCCC; 2'-OMe/2'-F, PEG spacer, 3' aminohexyl, chemistry not fully specified) [TTA8]	14 nM		
5′-(aminomodifier C2 dT)-mA mGmGmG mAmGG mAfCmG-(CH2CH2O)6-fCGfU fCGfC fCGfU mAmAfU mGmGmA fUmGfU fUfUfU mGfCfU fCfCfC fUmG-3′-3′-T (chain 1 AGGGAGGACG; chain 2 CGUCGCCGUAAUGGAUGUUUUGCUCCCUG; 2'-OMe and 2'-F mix, some positions unassigned, 5' amino-C2 dT, hexaethylene glycol spacer, 3'-3' dT, further chemistry not given here) [TTA5]	39 nM		
